Laboratory results: patent publication US20240327415A1, “Multicomponent Complexes, Including Salts, Crystalline Forms, and Hydrates and Solvates of ENT1 Inhibitors” (iTeos Belgium SA, priority 2023, published 2024)
Where a name gives a salt, the structure may show the parent alone.

Experiments:
Assay type in all cases: physicochemical
[1] = thermodynamic solubility in 8 aqueous media (Example 19); conditions: for solubility in aqueous media: 24 hours at 37° C.
Method: UPLC System—UPLC: ThermoFisher Vanquish, Detector 1: UV detector set at 266 nm
UPLC Conditions— • Auto sampler temp.: RT • Column: Agilent Eclipse Plus C18 HD (50×2.1 mm; 1.8 μm) • Column temp: 40° C. • Gradient: Mobile phase A: 10 mM ammonium acetate in water • Mobile phase B: Acetonitrile • Flow: 0.6 mL/min • Gradient:
• Concentration: ca. 1.0 mg/mL • Solvent: ACN/water 50:50 • Injection volume: 1 μl • Retention time: 2.9 min
Example 19-Solubility of Crystalline Form 2 Compound 1 di(hydrogen sulfate) trihydrate: The thermodynamic solubility of crystalline Form 2 Compound 1 di(hydrogen sulfate) trihydrate was determined in 8 aqueous media (0.1M HCl, Phthalate buffer pH 3, acetate buffer pH 4.2, phosphate buffer pH 7, phosphate buffer pH 7.4, alkaline borate buffer pH 9.0, purified water EP/USP and phosphate water pH 12). Buffer solutions were prepared according to the United States Pharmacopeia USP 43 with modified buffer strength. Suspensions were prepared by addition of a single aliquot of the aqueous medium to the crystalline Form 2 Compound 1 di(hydrogen sulfate) trihydrate. The pH was titrated to the targeted pH with 1M NaOH. After incubation for 24 hours at 37° C., the pH was measured, and the mother liquors were filtered and analyzed by UPLC to determine the concentration of the free base. The residual solids after the solubility determination were ambient- and vacuum dried and analyzed by HT-XRPD.

[2] = pH solubility studies in buffers and biorelevant media (Example 16); design: key: M4: Crystalline Form 4 mono(hydrogen sulfate); Crystalline Form 2 di(hydrogen sulfate) trihydrate; Amorphous; conditions: pH 6.8 (Phosphate), 24 h
Method: Example 16—pH Solubility Studies—(1) Crystalline Form 2 Compound 1 di(hydrogen sulfate) trihydrate, (2) Crystalline Form 3 Compound 1 di(hydrogen sulfate), and (3) Crystalline Form 4 Compound 1 mono(hydrogen sulfate): pH solubility studies were carried out on the prepared crystalline Form 2 Compound 1 di(hydrogen sulfate) trihydrate, crystalline Form 3 Compound 1 di(hydrogen sulfate) and crystalline Form 4 Compound 1 mono(hydrogen sulfate) in the following media: (1) HCl/KCl, pH 1.2; (2) Acetate, pH 4.5; (3) Phosphate, pH 6.8; (4) FaSSIF; (5) FeSSIF; and (6) FaSSGF. Slurries of the hydrogen sulfate forms were prepared in the appropriate medium and stirred at 25° C. For the experiments in the buffer media, the pH of the slurry samples was measured and adjusted as required after 1 hour and 23 hours of the slurrying. Additional solid was added where dissolution was observed post-adjustment. The pH of the samples in the biorelevant media was measured at the 23 hour timepoint. No pH adjustment was made for the biorelevant media. After a total of 24 hours of slurrying, the mother liquors were extracted via centrifugation, and the concentrations and solution purity were determined by HPLC. The residual solids were isolated and analyzed by XRPD and are shown in FIG. 77, FIG. 78, and FIG. 79. The assessment was repeated for some of the samples, where required.

[3] = solution stability in 1-propanol:water (80:20% v/v) at 50° C. (Example 8)
Method: Example 8-Solution Stability of Compound 1 di(hydrogen sulfate): As per Table 44, weighed amounts (mg) of Compound 1 (free base) were added to 5×1.5 mL screw cap vials. Sulfuric acid equivalents were added to each vial as solutions in volumes of 1-propanol: water (80:20% v/v) as further set forth in Table 44. Salt formation occurred in situ. The target free base concentration was about 186 mg/mL. The solutions were stirred at 50° C. for about 24 hours. […] Subsamples (50 μL) of the solutions were extracted for HPLC analysis after 2, 4, 6, and 23 hours of stirring at 50° C.

[4] = 1-propanol:water (80:20% v/v), 50° C., Acid Equiv. 1.90
[5] = 1-propanol:water (80:20% v/v), 50° C., Acid Equiv. 1.95
[6] = 1-propanol:water (80:20% v/v), 50° C., Acid Equiv. 2.00
[7] = 1-propanol:water (80:20% v/v), 50° C., Acid Equiv. 2.05
[8] = 1-propanol:water (80:20% v/v), 50° C., Acid Equiv. 2.10

## CCCN1CCNCCCNC(=O)c2cc(OC)c(OC)c(c2)OCCC[C@@H](OC(=O)c2cc(OC)c(OC)c(OC)c2)CC1
[1]
  solubility compared with the free base: more soluble than the free base
[1]; high pH (12.0)
  solubility in aqueous media: very slightly soluble
[1]; low pH values (<3.0)
  solubility in aqueous media: freely soluble
[1]; pH 4.2
  solubility in aqueous media: soluble
[1]; pH 7.0
  solubility in aqueous media: slightly soluble
[2]; attempt 1, 25° C.
  XRPD of residual solids: A
[2]; attempt 2, 25° C.
  XRPD of residual solids: A

## COc1cc(C(=O)O[C@@H]2CCCOc3cc(cc(OC)c3OC)C(=O)NCCCN3CCCN(CC2)CC3)cc(OC)c1OC [Compound 1 di(hydrogen sulfate)]
[3]; 1-propanol:water (80:20% v/v), 50° C.
  lowering of purity at the T23h timepoint versus earlier samples: about 0.8 % area
[3]; 1-propanol:water (80:20% v/v), 50° C., 2, 4, 6 and 23 hours
  solution purity: 98.7-99.7 % area
[3]; [4]
  HPLC Conc. T2 h: 176 mg/mL
  HPLC Conc. T4 h: 167 mg/mL
  HPLC Conc. T6 h: 183 mg/mL
  HPLC Conc. T23 h: 164 mg/mL
  HPLC Purity T2 h: 99.70 % area
  HPLC Purity T4 h: 99.67 % area
  HPLC Purity T6 h: 99.58 % area
  HPLC Purity T23 h: 98.94 % area
[3]; [5]
  HPLC Conc. T2 h: 175 mg/mL
  HPLC Conc. T4 h: 169 mg/mL
  HPLC Conc. T6 h: 179 mg/mL
  HPLC Conc. T23 h: 162 mg/mL
  HPLC Purity T2 h: 99.60 % area
  HPLC Purity T4 h: 99.61 % area
  HPLC Purity T6 h: 99.53 % area
  HPLC Purity T23 h: 99.00 % area
[3]; [6]
  HPLC Conc. T2 h: 170 mg/mL
  HPLC Conc. T4 h: 165 mg/mL
  HPLC Conc. T6 h: 169 mg/mL
  HPLC Conc. T23 h: 170 mg/mL
  HPLC Purity T2 h: 99.66 % area
  HPLC Purity T4 h: 99.58 % area
  HPLC Purity T6 h: 99.43 % area
  HPLC Purity T23 h: 98.78 % area
[3]; [7]
  HPLC Conc. T2 h: 166 mg/mL
  HPLC Conc. T4 h: 165 mg/mL
  HPLC Conc. T6 h: 173 mg/mL
  HPLC Conc. T23 h: 165 mg/mL
  HPLC Purity T2 h: 99.68 % area
  HPLC Purity T4 h: 99.52 % area
  HPLC Purity T6 h: 99.42 % area
  HPLC Purity T23 h: 98.85 % area
[3]; [8]
  HPLC Conc. T2 h: 166 mg/mL
  HPLC Conc. T4 h: 164 mg/mL
  HPLC Conc. T6 h: 168 mg/mL
  HPLC Conc. T23 h: 167 mg/mL
  HPLC Purity T2 h: 99.60 % area
  HPLC Purity T4 h: 99.62 % area
  HPLC Purity T6 h: 99.47 % area
  HPLC Purity T23 h: 98.89 % area
[3]; 1-propanol:water solvent system at 50° C.
  overall solution stability: substantial stability
[3]; input free base concentration 186 mg/mL, 50° C.
  concentration of the solutions by HPLC: 162000 to 183000 µg/mL
